For 47 compounds, IC50 and inhibition results are on record in ChEMBL document CHEMBL1125567, “Novel cAMP PDE III inhibitors: 1,6-naphthyridin-2(1H)-ones” (J Med Chem, 1992).

Test [1] has as its target Phosphodiesterase 3 (Canis lupus familiaris). The test can be described thus: In vitro inhibitory activity against cAMP PDE III.
The test system of test [2] is Phosphodiesterase 3 (Canis lupus familiaris). The test can be described thus: In vitro inhibition of cAMP PDE III by the compound at a concentration of 10 uM.
Test [3] shares this test system. The test can be described thus: In vitro inhibition of cAMP Phosphodiesterase 3 at a concentration of 10 uM.
The test system is the same in test [4]. The test can be described thus: Inhibition of cAMP Phosphodiesterase 3 at 10 uM.
Test [5] concerns the target Phosphodiesterase 3 (Canis lupus familiaris). The test can be described thus: Inhibition of cAMP Phosphodiesterase 3.
The target is the same in test [6]. The test can be described thus: Inhibition of cAMP PDE 3.
In test [7] the test system is Phosphodiesterase 3 (Canis lupus familiaris). The test can be described thus: Inhibition of cAMP PDE 3 at 10 uM.
The target of test [8] is Phosphodiesterase 3 (Canis lupus familiaris). The test can be described thus: Inhibition of cAMP PDE 3. The source holds these as a separate data set.

What is called IC50 is the concentration needed to halve the response being measured. A word on the inhibition: it is the percentage by which the read-out fell short of the control. With `COc1ccc(-c2nccc3nc(O)ccc23)cc1`, in test [1], the half-maximal inhibitory concentration (IC50) was found to be 3200 nM. Moreover, the inhibition in test [2] came to 64%.
As for `Oc1ccc2c(-c3ccc(Br)cc3)nccc2n1`, the inhibition in test [3] was 55%.
In test [1], `Oc1ccc2c(-c3ccc(F)cc3)nccc2n1` came in with an IC50 of 940 nM. In test [2], this compound yielded an inhibition of 78%.
For `Oc1ccc2c(-c3cccs3)nccc2n1` the same measures were 140 nM and 79%.
The compound `Cc1nccn1-c1nccc2nc(O)ccc12` returned an inhibition in test [3] of 34%.
Take `OCc1cn(-c2nccc3nc(O)ccc23)cn1`: the inhibition in test [3] was found to be 58%.
In turn, `Oc1ccc2c(-n3cnc(Br)c3)nccc2n1` yielded an inhibition in test [4] of 43%.
As to `Cc1nccc2nc(O)c(O)cc12`, in test [3], the inhibition worked out at 51%.
Take `Oc1ccc2c(-n3cnc(C(F)(F)F)c3)nccc2n1`: in test [3], the inhibition worked out at 13%.
In test [1], `Cc1c2ccc(=O)[nH]c2cc[n+]1[O-]` showed an IC50 of 3100 nM. This compound also came in with an inhibition in test [2] of 65%.
For `Oc1ccc2c(-c3ccc(Cl)cc3)nccc2n1`, in that order: 300 nM and 78%.
On to `Cc1ncn(-c2nccc3nc(O)ccc23)n1`, for which, in test [3], the inhibition is 39%.
In test [1], `Oc1ccc2c(-c3ccncc3)nccc2n1` had an IC50 of 2200 nM. In test [2], this compound registered an inhibition of 78%.
Consider `Cn1c(=O)ccc2c(-c3ccccc3)nccc21`, for which the inhibition in test [3] was found to be 36%.
In the case of `Cc1nccc2nc(Cl)ccc12`, in test [4], the inhibition turned out to be 18%.
Same read-out and setting: to `Oc1ccc2c(-n3cncn3)nccc2n1` belongs 50%.
Compound `CCc1nccc2nc(O)ccc12` returned an IC50 in test [1] of 40 nM. The inhibition in test [2] came to 87%.
In test [3], `Cc1ncc([N+](=O)[O-])n1-c1nccc2nc(O)ccc12` registered an inhibition of 18%.
In test [3], `Cc1nccc2nc(O)c(C#N)cc12` gave an inhibition of 52%.
For `Oc1ccc2c(-c3ccccc3)nccc2n1`, the concentration for half-maximal inhibition (IC50) in test [1] came out at 1400 nM. The inhibition in test [2] stood at 78%.
Consider `Cc1cc2cnccc2nc1O`, for which, in test [3], the inhibition was determined as 37%.
As for `Nc1ccc(-c2nccc3nc(O)ccc23)cc1`, in test [1], the IC50 stood at 230 nM. The inhibition in test [2] turned out to be 91%.
As to `Cc1ncn(-c2nccc3nc(O)ccc23)c1C`, in test [3], the inhibition worked out at 28%.
On the same count and under the same terms, to `Oc1ccc2c(-n3cccn3)nccc2n1` belongs 39%.
`Oc1ccc(-c2nccc3nc(O)ccc23)cc1`: in test [5], the IC50 stood at 600 nM. Further, the inhibition in test [3] was found to be 81%.
With `CCCc1nccc2nc(O)ccc12`, in test [1], the IC50 is 48 nM. The inhibition in test [2] was 83%.
`Oc1ccc2c(-c3ccco3)nccc2n1`: in test [1], the IC50 was 140 nM. The compound further gave an inhibition in test [2] of 74%.
In turn, `CC(C)Cc1nccc2nc(O)ccc12` showed an IC50 in test [1] of 570 nM. This compound showed an inhibition in test [2] of 81%.
For `Cc1cn(-c2nccc3nc(O)ccc23)cn1`, in that order: 2800 nM and 72%.
On to `Oc1ccc2c(-n3cnc(-c4ccccc4)c3)nccc2n1`, for which the inhibition in test [3] was found to be 43%.
Take `Oc1ccc2c(C(Cl)Cl)nccc2n1`: in test [6], the IC50 is 160 nM. The compound further yielded an inhibition in test [4] of 83%.
Turning to `Cc1nccc2nc(O)c(C(N)=O)cc12`, in test [3], the inhibition stood at 39%.
`Oc1ccc2cnccc2n1` returned an IC50 in test [1] of 18800 nM. Also, the inhibition in test [2] is 55%.
`O=[N+]([O-])c1cn(-c2nccc3nc(O)ccc23)cn1` had an inhibition in test [3] of 46%.
For the compound `CC(=O)c1nccc2nc(O)ccc12`, the IC50 in test [1] was 1420 nM. In test [2], this compound gave an inhibition of 85%.
For `OCc1nccc2nc(O)ccc12` the same measures were 3700 nM and 58%.
For the compound `COc1ccc2c(C)nccc2n1`, the inhibition in test [3] came to 21%.
In turn, `Cc1cn(-c2nccc3c2ccc(=O)n3C)cn1` came in with an inhibition in test [3] of 21%.
On the same count and under the same terms, to `Cc1nccc2nc(O)c(N)cc12` belongs 59%.
The compound `Cc1nccc2nc(S)ccc12` showed an IC50 in test [5] of 960 nM. In test [3], the inhibition is 81%.
Compound `Cc1nccc2[nH]c(=O)ccc12` [MEDORINONE] showed an inhibition in test [7] of 67%. Moreover, in test [8], the IC50 is 550 nM.
Consider `Cc1cnn(-c2nccc3nc(O)ccc23)c1`, for which the inhibition in test [3] is 30%.
Still for that read-out and setting: to `Cc1nccc2nc(N)ccc12` belongs 24%.
As to `Oc1ccc2c(Br)nccc2n1`, the IC50 in test [6] was determined as 170 nM. The compound also yielded an inhibition in test [4] of 70%.
In test [3], `Cc1cc2nc(O)ccc2cn1` returned an inhibition of 53%.
Same read-out and setting: to `Cc1nccc2c1ccc(=O)n2C` belongs 17%; to `Oc1ccc2c(-n3ccnc3)nccc2n1`, 56%.
